Source: patent publication US8946282B2, “Indolin-2-one derivatives as protein kinase inhibitors” (Annji Pharmaceutical Co., Ltd., priority 2012, dated 2015)

Experiments:
[1] = system: HepG2 human hepatocellular carcinoma cells; experiment: anti-proliferation, SRB colorimetric assay, HepG2; format: cell-based; details: concentration required for 50% growth inhibition, read-out: IC50 (μM, mean ± S.D.)
Source text: HCT116 human colorectal carcinoma cells (Table 3), HepG2 human hepatocellular carcinoma cells (Table 4), and MV4-11 human acute myelomonocytic leukemia cells (Table 5).

FLT-3 = biological target: T1, FLT-3 (Homo sapiens, UniProt P36888); experiment: radioisotope-based P81 filter-binding assay, FLT-3 kinase; format: biochemical; details: averaged from two independent dose-response curves; read-out: Enzyme assay IC50 FLT-3
T1 sequence (P36888 27-993): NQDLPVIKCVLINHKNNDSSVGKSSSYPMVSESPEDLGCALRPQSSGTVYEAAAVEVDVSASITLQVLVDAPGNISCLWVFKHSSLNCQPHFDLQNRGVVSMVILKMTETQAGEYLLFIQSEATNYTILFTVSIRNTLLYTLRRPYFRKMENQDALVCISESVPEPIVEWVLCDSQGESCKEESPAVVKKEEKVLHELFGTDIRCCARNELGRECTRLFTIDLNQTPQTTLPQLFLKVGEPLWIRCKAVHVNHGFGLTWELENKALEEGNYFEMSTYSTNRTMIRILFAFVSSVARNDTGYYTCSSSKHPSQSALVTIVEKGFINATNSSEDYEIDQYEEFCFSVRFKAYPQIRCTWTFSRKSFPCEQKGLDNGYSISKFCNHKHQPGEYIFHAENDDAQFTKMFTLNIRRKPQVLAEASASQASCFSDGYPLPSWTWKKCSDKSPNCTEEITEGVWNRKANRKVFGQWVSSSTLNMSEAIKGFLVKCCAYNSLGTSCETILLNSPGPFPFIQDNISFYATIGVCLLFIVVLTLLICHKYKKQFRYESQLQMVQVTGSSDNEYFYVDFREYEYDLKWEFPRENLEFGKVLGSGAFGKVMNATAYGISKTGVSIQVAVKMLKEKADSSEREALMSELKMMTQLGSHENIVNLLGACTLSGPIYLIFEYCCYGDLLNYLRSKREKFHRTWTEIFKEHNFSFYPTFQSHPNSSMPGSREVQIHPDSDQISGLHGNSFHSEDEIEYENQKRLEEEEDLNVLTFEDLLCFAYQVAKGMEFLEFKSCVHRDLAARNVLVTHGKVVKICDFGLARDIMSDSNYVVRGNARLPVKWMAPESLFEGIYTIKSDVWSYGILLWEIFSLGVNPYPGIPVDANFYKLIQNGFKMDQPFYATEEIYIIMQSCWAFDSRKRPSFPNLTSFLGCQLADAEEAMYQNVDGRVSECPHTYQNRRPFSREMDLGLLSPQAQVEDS
Protocol: (§1) Compounds of formula (I)-(IV) were evaluated for abilities in inhibiting protein kinases aurora B and FLT-3 activity using radioisotope-based P81 filter-binding assay (Table 1).

[2] = system: A549 human lung carcinoma cells; experiment: anti-proliferation, SRB colorimetric assay, A549; format: cell-based; details: concentration required for 50% growth inhibition, read-out: IC50 (μM, mean ± S.D.)
aurora B = aurora B (Homo sapiens, UniProt Q96GD4); experiment: radioisotope-based P81 filter-binding assay, aurora B kinase; format: biochemical; details: averaged from two independent dose-response curves; read-out: Enzyme assay IC50 Aur B
Protocol: as §1

[3] = system: MV4-11 human acute myelomonocytic leukemia cells; experiment: anti-proliferation, SRB colorimetric assay, MV4-11; format: cell-based; details: concentration required for 50% growth inhibition
Protocol: (§2) HCT116 human colorectal carcinoma cells (Table 3), HepG2 human hepatocellular carcinoma cells (Table 4), and MV4-11 human acute myelomonocytic leukemia cells (Table 5). Cells were treated with the test compound and the concentration required for 50% growth inhibition (IC50) determined by sulfomodamine B (SRB) colorimetric assay.

[4] = system: HCT116 human colorectal carcinoma cells; experiment: anti-proliferation, SRB colorimetric assay, HCT116; format: cell-based; details: HCT-116, concentration required for 50% growth inhibition, read-out: IC50 (μM, mean ± S.D.)
Protocol: as §2

Chain of aurora B (Q96GD4 whole entry): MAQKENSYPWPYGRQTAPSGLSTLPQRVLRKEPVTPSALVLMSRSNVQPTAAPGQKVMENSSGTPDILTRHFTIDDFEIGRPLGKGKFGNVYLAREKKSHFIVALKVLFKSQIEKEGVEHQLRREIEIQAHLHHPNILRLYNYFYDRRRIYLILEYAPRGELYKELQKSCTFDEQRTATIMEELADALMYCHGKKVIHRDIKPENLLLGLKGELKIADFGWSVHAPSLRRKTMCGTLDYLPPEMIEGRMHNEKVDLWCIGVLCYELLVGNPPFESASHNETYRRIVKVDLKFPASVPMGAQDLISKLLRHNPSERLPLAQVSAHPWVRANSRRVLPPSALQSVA

| Compound | IC50 [1] | melting point | IC50 (FLT-3) | IC50 [2] | IC50 (aurora B) | IC50 [3] | IC50 [4] |
| --- | --- | --- | --- | --- | --- | --- | --- |
| Cc1[nH]c(/C=C2\C(=O)Nc3cc(NC(=O)NC(=O)c4ccccc4F)ccc32)c(C)c1C(=O)O [D53, (Z)-5-((6-(3-(2-fluorobenzoyl)ureido)-2-oxoindolin-3-ylidene)methyl)-2,4-dimethyl-1H-pyrrole-3-carboxylic acid] | 0.85 ± 0.11 µM | 264 to 269 °C (dec.) | 508 nM | 0.63 ± 0.08 µM | 3.7 nM | 8.07 nM | – |
| COc1ccc(C(=O)NC(=O)Nc2ccc3c(c2)NC(=O)/C3=C\c2[nH]c(C)c(C(=O)NCCN(C)C)c2C)c(F)c1 [D68] | 0.74 ± 0.07 µM | – | 16.2 nM | 0.47 ± 0.01 µM | 10.5 nM | – | 0.87 ± 0.06 µM |
| COc1ccc(C(=O)NC(=O)Nc2ccc3c(c2)NC(=O)/C3=C\c2[nH]c(C)c(C(=O)NCCN3CCCC3)c2C)c(F)c1 [D70, (Z)-5-((6-(3-(2-fluoro-4-methoxybenzoyl)ureido)-2-oxoindolin-3-ylidene)methyl)-2,4-dimethyl-N-(2-(pyrrolidin-1-yl)ethyl)-1H-pyrrole-3-carboxamide] | 0.68 ± 0.03 µM | – | 0.5 nM | 0.56 ± 0.05 µM | 0.4 nM | – | 0.85 ± 0.08 µM |
| O=C1Nc2cc(NC(=O)c3cccn(-c4ccc(F)cc4)c3=O)ccc2/C1=C/c1ccc[nH]1 [D107, (Z)—N-(3-((1H-pyrrol-2-yl)methylene)-2-oxoindolin-6-yl)-1-(4-fluorophenyl)-2-oxo-1,2-dihydropyridine-3-carboxamide] | 0.9 ± 0.2 µM | 295 to 296 °C | 8.6 nM | 0.7 ± 0.2 µM | 791 nM | 0.02 nM | – |
| O=C1Nc2cc(NC(=O)c3cccn(-c4ccc(Cl)c(Cl)c4)c3=O)ccc2/C1=C/c1ccc[nH]1 [D110, (Z)—N-(3-((1H-pyrrol-2-yl)methylene)-2-oxoindolin-6-yl)-1-(3,4-dichlorophenyl)-2-oxo-1,2-dihydropyridine-3-carboxamide] | 0.82 ± 0.03 µM | – | 59.9 nM | – | > 1000 nM | 2.4 nM | 0.85 ± 0.13 µM |
| Cc1[nH]c(/C=C2\C(=O)Nc3cc(NC(=O)c4c[nH]cc(-c5ccc(F)cc5)c4=O)ccc32)c(C)c1C(=O)N1CCN(C)CC1 [D149, (Z)—N-(3-((3,5-dimethyl-4-(4-methylpiperazine-1-carbonyl)-1H-pyrrol-2-yl)methylene)-2-oxoindolin-6-yl)-5-(4-fluorophenyl)-4-oxo-1,4-dihydropyridine-3-carboxamide] | 0.65 ± 0.11 µM | 283 °C (dec.) | 1.4 nM | 0.55 ± 0.05 µM | 70.5 nM | 0.05 nM | – |
| Cc1[nH]c(/C=C2\C(=O)Nc3cc(NC(=O)c4c[nH]cc(-c5ccc(F)cc5)c4=O)ccc32)c(C)c1CC(=O)N1CCN(C)CC1 [D150, (Z)—N-(3-((3,5-dimethyl-4-(2-(4-methylpiperazin-1-yl)-2-oxoethyl)-1H-pyrrol-2-yl)methylene)-2-oxoindolin-6-yl)-5-(4-fluorophenyl)-4-oxo-1,4-dihydropyridine-3-carboxamide] | 0.7 ± 0.07 µM | > 300 °C | 10.3 nM | 0.57 ± 0.04 µM | 91.6 nM | 0.1 nM | – |
| Cc1[nH]c(/C=C2\C(=O)Nc3cc(NC(=O)c4c[nH]cc(-c5ccc(F)cc5)c4=O)ccc32)c(C)c1CCC(=O)N1CCN(C)CC1 [D151, (Z)—N-(3-((3,5-dimethyl-4-(3-(4-methylpiperazin-1-yl)-3-oxopropyl)-1H-pyrrol-2-yl)methylene)-2-oxoindolin-6-yl)-5-(4-fluorophenyl)-4-oxo-1,4-dihydropyridine-3-carboxamide] | 0.88 ± 0.13 µM | 250 °C | 4.8 nM | 0.66 ± 0.07 µM | 107 nM | 0.34 nM | – |
